Measured values taken from patent publication US8097624B2, “Cycloalkyl derivatives of 3-hydroxy-4-pyridinones” (Apotex Inc., priority 2006, dated 2012).
Counter-ions that a name gives are not always drawn. Like-named read-outs stand apart in the source and are kept apart here.

Legend:
[1] = pKa determination by potentiometric or spectrophotometric titration; format: physicochemical; conditions: titration in 0.1 M NaCl at 22° C.
Experimental: The pKa values of ligands were determined by potentiometric titration when a ligand concentration greater than 1×10^−2 M in water could be prepared. In a typical experiment, the sample solution (2.67×10^−2 M) was prepared by the following method: Apo6619 (92.6 mg) was weighed into a 25-ml beaker, followed by the addition of 0.1 M NaCl (15 ml). The mixture was sonicated for 10 minutes to give a clear colorless solution. Nitrogen gas was then allowed to bubble through the solution. 1.000 N Hydrochloric acid (624 μl, 1.5 equivalent) was added to the solution to give pH 1.88. The solution was allowed to equilibrate at 22° C. for 60 minutes.
The solution was then titrated against 1.000 N NaOH at 22° C. to reach pH 11.8. For each addition of base, the solution was allowed to equilibrate until a constant pH reading was reached. The volume of the base added and the pH reading were recorded for each measurement. 137 measurements were taken to finish the experiment.
The data set of pH vs. base volume was analyzed using Hyperquad 2000 (Version 2.1, Peter Gans, University of Leeds).
The pKa values of ligands can be determined by spectrophotometric titration when both the conjugated acid and base absorb in the UV-Visible region. In a typical experiment, the sample solution was prepared by the following method: Apo6617 (0.792 mg) was weighed into an 80-ml beaker, followed by the addition of 0.1 M NaCl (50 ml). The mixture was sonicated for 5 minutes to give a clear colorless solution. Nitrogen gas was allowed to bubble through the solution. 1.000 N NaOH (50 μl) was added to give pH 10.9. The solution was allowed to equilibrate at 22° C. for 1 hour. A sipper system was used for the circulation of the sample solution between the beaker and the flow cell.
The sample solution was titrated against standard hydrochloric acid solutions at 22° C. to reach pH 1.40. After each addition of acid the solution was allowed to equilibrate until a constant pH reading was reached. The pH and the UV-Vis spectrum were recorded for each measurement. The peak wavelengths of the deprotonated species (L^−), the neutral species (LH), and the protonated species (LH2^+) were 314 nm, 281 nm, and 249 nm, respectively. In the region of pH>6, after each addition of acid there was a slight decrease in the absorbance at 314 nm and a slight increase at 281 nm in each spectrum, whereas in the region of pH<5, after each addition of acid there was a slight decrease in the absorbance at 281 nm and a slight increase at 249 nm in each spectrum. The solution was titrated until there was no obvious change in the spectra after several subsequent additions of acid. 116 measurements were taken to finish the experiment.
The resulting data set was then analyzed using pHAB (Peter Gans, University of Leeds).

[2] = Distribution coefficient determination (D7.4), 1-octanol / MOPS buffer; format: physicochemical; conditions: 1-octanol / MOPS buffer pH 7.4
Experimental: MOPS buffer (50 mM, pH=7.4) and 1-octanol were used as the aqueous phase and the organic phase, respectively, for distribution coefficient determinations. The MOPS buffer and 1-octanol were pre-saturated with each other before use.
In a typical experiment, an organic stock solution of Apo6618 (1-cyclopropyl-3-hydroxy-6-methyl-4-oxo-1,4-dihydro-pyridine-2-carboxylic acid cyclopropylamide) was prepared by weighing out 0.50 mg of the compound into a 10-mL volumetric flask and bringing to volume with 1-octanol. The solution was then sonicated for 60 minutes so that the sample could dissolve completely. The concentration of the stock solution was calculated as C^0org=2.0×10^−4 M. The organic standard solution of Apo6618 with 2.0×10^−5 M was prepared in a 10-mL volumetric flask by 10 times dilution of the stock solution with 1-octanol. The sample solution was prepared in a 10-mL volumetric flask. The stock sample solution (3 ml) was pipetted into the flask followed by the addition of MOPS buffer (3 ml). The standard and sample solutions were then vortexed for 2 hours. After vortexing, the solutions were transferred to test tubes and centrifuged at 4000 rpm for 15 minutes. UV-Vis spectra were recorded for the standard solution and the organic (top) phase of the sample solution at 22° C. The distribution coefficient, D7.4, was calculated using the following equation: D7.4=[Aorg/(C^0orgεorg−Aorg)]×(Vaqu/Vorg)
Where εorg=the molar extinction coefficient of the peak wavelength (λmax) obtained from the UV-Vis spectrum of the organic standard solution; Aorg=absorbance of the organic phase in the sample solution at the same λmax; C^0org=the concentration of the stock solution; Vaqu=the volume of MOPS buffer in the sample solution; Vorg=the volume of the stock solution in the sample solution.

[3] = Metal complexation constants, Fe system (spectrophotometric titration; pM by Hyss); format: binding; conditions: for Log β3: Fe(III) overall complexation constant; for pFe^3+: total iron 10^−6 M, ligand 10^−5 M, pH 7.4, calculated from experimental pKa and complexation constants
Experimental: Compounds of this invention are designed to improve properties to known deferiprone analogues. […]. The definition of pFe^3+ used herein is the concentration of ferric ion in solution when the total amount of iron equals 10^−6 M and the concentration of ligand is 10^−5 M and pH is 7.4. It is calculated using experimental determined pKa and metal complexation constants using Hyperquad software (Version 2.1, Peter Gans, University of Leeds). The lowering of the pKa value of the C3 phenolic OH to less than 8.8 ensures that a higher pFe^3+ value when combined with a favorable complexation constant β3. The concept of complexation is detailed below.
The stepwise and overall complexation constants of a bidentate ligand such as 3-hydroxy-4-pyridinone follow: Fe(III)+Ligand→Fe[Ligand]1K1 Fe[Ligand]1+Ligand→Fe[Ligand]2K2 Fe[Ligand]2+Ligand→Fe[Ligand]3K3 Complexation constant β3=K1.K2.K3
Stepwise formation constants for M^n+-ligand systems were determined by spectrophotometric titration when metal complexes have a strong absorbance in the visible region due to ligand to metal charge transfer. In a typical experiment, the sample solution was prepared according to the following method: Apo6619 (10.7 mg) was weighed into an 80-ml beaker, followed by the addition of 0.1 M NaCl (50 ml). The mixture was sonicated for 10 minutes to give a clear colorless solution. Iron stock solution (atomic absorption standard, Aldrich, 496 μl, 8.93E-06 moles) was pipetted into the solution followed by the addition of 1.000 N NaOH (137 μl). The molar ratio between the total iron and the total Apo6619 was 1:5.4. The mixture was allowed to equilibrate at room temperature overnight. Nitrogen was allowed to bubble through the solution. 1.000 N Hydrochloric acid (3 ml) was then added to the solution to give pH 1.5. The solution was allowed to equilibrate at 22° C. for 3 hours.
A sipper system was used for the circulation of the sample solution between the beaker and the flow cell.
The sample solution was titrated against standard NaOH solutions at 22° C. to reach pH 6.89. After each addition of base the solution was allowed to equilibrate until a constant pH reading was reached. The pH and the UV-Vis spectrum were recorded for each measurement. For each measurement enough base was added so that there was a slight increase in the absorbance of the spectrum. The solution was titrated until there was no obvious increase in the spectra after several subsequent additions of base. Altogether 64 measurements were taken to finish the experiment.
[…]; pM^n+ is defined as −log [M(H2O)m]^n+ at physiological conditions, i.e.: pH 7.4, a ligand concentration of 10 μM, and a metal concentration of 1 μM.
To calculate pM^n+ for a MLn system, βn and pKa values are needed (βn are the formation constants for M^n++n L^− ? MLn; pKa are the equilibrium constants for L^−+n H^+ ? LHn^(n−1)+). The pM^n+ can be calculated by using Hyss software (Hyperquad Stimulation and Speciation software: HYSS2© 2000 Protonic Sofware).

[4] = U.S. Pat. No. 6,335,353; cited from earlier work
[5] = Redox potentials of iron complexes by cyclic voltammetry; format: physicochemical; conditions: glassy carbon working electrode, 2.0 mM, pH 7.4; for E1/2 / Ep^ox / Ep^red: vs Ag/AgCl
[6] = cited from earlier work

pKas (higher value, phenolic C3 OH) [1] | pKas (lower value, LH2+) [1] | D7.4 [2] | Molecule | Log β3 [3] | pFe^3+ [3] | further results
8.6 | 2.5 | 0.331 | Cc1cc(=O)c(O)c(C(=O)NC2CC2)n1C1CC1 [Apo6618, 1-Cyclopropyl-3-hydroxy-6-methyl-4-oxo-1,4-dihydro-pyridine-2-carboxylic Acid Cyclopropylamide] | 33.6 | 20.5 | 
8.7 | 2.7 | 0.78 | Cc1cc(=O)c(O)c(C(=O)NC2CCCC2)n1C [Apo6620, N-cyclopentyl-3-hydroxy-1,6-dimethyl-4-oxo-1,4-dihydro-pyridine-2-carboxamide] | 33.8 | 20.3 | melting point: 289.3 °C (dec.)
8.7 | 2.5 | 2.2 | Cc1cc(=O)c(O)c(C(=O)NC2CCCCC2)n1C [Apo6621, 3-Hydroxy-1,6-dimethyl-4-oxo-1,4-dihydro-pyridine-2-carboxylic Acid Cyclohexylamide] | 34.3 | 20.9 | 
8.6 | 2.8 | 0.357 | Cc1cc(=O)c(O)c(C(=O)NC2CCC2)n1C [Apo6622, N-cyclobutyl-3-hydroxy-1,6-dimethyl-4-oxo-1,4-dihydropyridine-2-carboxamide] | 33.9 | 20.8 | 
8.5 | 2.7 | 0.04 | CNC(=O)c1c(O)c(=O)cc(C)n1C [CP502, 1,6-Dimethyl-3-hydroxy-4(1H)-pyridinone-2-carboxy-(N-methyl)-amide hydrochloride, reference compound] | 33.6 | 20.9 | O-glucuronidation at the C3 oxygen [4]: effectively blocked the O-glucuronidation
 |  |  | CC(=O)N([O-])CCCCCNC(=O)CCC(=O)N([O-])CCCCCNC(=O)CCC(=O)N([O-])CCCCCN.[Fe+3] [Fe(DFO)] |  |  | ΔEp [5]: 112 mV; E1/2 [5]: −698 mV; Ep^ox [5]: −642 mV; Ep^red [5]: −754 mV; E1/2 literature value ([6]; vs Ag/AgCl, Crumbliss et al, Inorganic Chemistry 2003): −688 mV
 |  |  | Cc1c([O-])c(=O)ccn1C.Cc1c([O-])c(=O)ccn1C.Cc1c([O-])c(=O)ccn1C.[Fe+3] [Fe(deferiprone)3] |  |  | ΔEp [5]: 107 mV; E1/2 [5]: −834 mV; Ep^ox [5]: −780 mV; Ep^red [5]: −887 mV
 |  |  | Fe-transferrin: iron bound to transferrin in human blood |  |  | E1/2 ([6]; vs. Ag/AgCl): −720 mv; E1/2 ([6]; vs. NHE): −500 mv
